Inconclusive results and toxic doses are left out.
Tested on: L1210 leukemia ip in BDF1 mice, survival T/C
Experiment: NCI In Vivo Anticancer Drug Screen. Data for tumor model L1210 Leukemia (intraperitoneal) in B6D2F1 (BDF1) mice
Settings: endpoint: mean survival time, higher = longer survival
Summary of the method: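 Mice bearing the transplanted tumor received compound or vehicle. Survival of the treated group was divided by that of the vehicle-treated control group to give the ratio.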

[1] = dose: 100.0 mg/kg/injection, schedule: Q01DX009 (ip), vehicle: Klucel (hydroxypropylcellulose) (HPC)
[2] = dose: 200.0 mg/kg/injection, schedule: Q01DX009 (ip), vehicle: Klucel (hydroxypropylcellulose) (HPC)
[3] = dose: 100.0 mg/kg/injection, schedule: Q04DX003 (ip), vehicle: Klucel (hydroxypropylcellulose) (HPC)
[4] = dose: 200.0 mg/kg/injection, schedule: Q04DX003 (ip), vehicle: Klucel (hydroxypropylcellulose) (HPC)
[5] = dose: 400.0 mg/kg/injection, schedule: Q04DX003 (ip), vehicle: Klucel (hydroxypropylcellulose) (HPC)

In the case of `CCC[Si](Cl)(CCC)CCC`, the T/C (dose: 18.75 mg/kg/injection, schedule: Q01DX009 (ip), vehicle: acetone) is reported as 98 % of control, the T/C (dose: 37.5 mg/kg/injection, schedule: Q01DX009 (ip), vehicle: acetone) is reported as 94 % of control and the T/C (dose: 37.5 mg/kg/injection, schedule: Q04DX003 (ip), vehicle: acetone) is reported as 99 % of control. The T/C (dose: 75.0 mg/kg/injection, schedule: Q01DX001 (ip), vehicle: acetone) was 93 % of control, the T/C (dose: 75.0 mg/kg/injection, schedule: Q01DX009 (ip), vehicle: acetone) was 96 % of control and the T/C (dose: 75.0 mg/kg/injection, schedule: Q04DX003 (ip), vehicle: acetone) was 94 % of control. The T/C (dose: 150.0 mg/kg/injection, schedule: Q01DX001 (ip), vehicle: acetone) was 101 % of control, the T/C (dose: 150.0 mg/kg/injection, schedule: Q04DX003 (ip), vehicle: acetone) was 100 % of control and the T/C (dose: 300.0 mg/kg/injection, schedule: Q01DX001 (ip), vehicle: acetone) was 86 % of control.
For `COc1cc([N+](=O)[O-])ccc1NC(=O)Oc1ccc(-c2ccccc2)cc1`, the T/C [1] was 95 % of control, the T/C [2] was 95 % of control and the T/C (dose: 400.0 mg/kg/injection, schedule: Q01DX009 (ip), vehicle: Klucel (hydroxypropylcellulose) (HPC)) was 98 % of control.
`Cc1ccc(S(=O)(=O)NCC(=O)NCCC#N)cc1` was tested, and the T/C (dose: 100.0 mg/kg/injection, schedule: Q01DX001 (ip), vehicle: Klucel (hydroxypropylcellulose) (HPC)) was 103 % of control, the T/C (dose: 200.0 mg/kg/injection, schedule: Q01DX001 (ip), vehicle: Klucel (hydroxypropylcellulose) (HPC)) was 97 % of control and the T/C (dose: 400.0 mg/kg/injection, schedule: Q01DX001 (ip), vehicle: Klucel (hydroxypropylcellulose) (HPC)) was 92 % of control.
With `CCOC(=O)c1ccc(C(=O)OCC)c(C#N)n1` the T/C [1] was 102 % of control, the T/C [3] was 100 % of control and the T/C [2] was 97 % of control. For the same compound, the T/C [4] was 93 % of control and the T/C [5] was 95 % of control.
With `N#CC(C(=O)c1ccccc1)c1ccccc1` (stereo not drawn) the T/C (dose: 62.5 mg/kg/injection, schedule: Q04DX002 (ip), vehicle: Klucel (hydroxypropylcellulose) (HPC)) was 108 % of control and the T/C (dose: 125.0 mg/kg/injection, schedule: Q04DX002 (ip), vehicle: Klucel (hydroxypropylcellulose) (HPC)) was 96 % of control.
In the case of `CC(C)(C)c1cc2c(cc1O)C(C)(C)CCC2(C)C`, the T/C (dose: 100.0 mg/kg/injection, schedule: Q04DX002 (ip), vehicle: Klucel (hydroxypropylcellulose) (HPC)) is reported as 105 % of control, the T/C (dose: 200.0 mg/kg/injection, schedule: Q04DX002 (ip), vehicle: Klucel (hydroxypropylcellulose) (HPC)) is reported as 105 % of control and the T/C (dose: 400.0 mg/kg/injection, schedule: Q04DX002 (ip), vehicle: Klucel (hydroxypropylcellulose) (HPC)) is reported as 98 % of control.
`C(CC1CCNCC1)CC1CCNCC1` was tested, and the T/C (dose: 10.0 mg/kg/injection, schedule: Q01DX Z (ip), vehicle: saline) was 96 % of control and the T/C (dose: 30.0 mg/kg/injection, schedule: Q01DX Z (ip), vehicle: saline) was 96 % of control.
For `CCOC(OCC)C(O)CNc1ccc([N+](=O)[O-])cc1[N+](=O)[O-]` (stereo not drawn), the T/C [3] was 98 % of control, the T/C [4] was 101 % of control and the T/C [5] was 103 % of control.
In the case of `CC(C)C1CCC(NC(=O)N(CCF)N=O)CC1` (stereo not drawn), the T/C (dose: 9.5 mg/kg/injection, schedule: Q01DX001 (ip), vehicle: other) is reported as 108 % of control, the T/C (dose: 23.0 mg/kg/injection, schedule: Q01DX001 (ip), vehicle: other) is reported as 165 % of control and the T/C (dose: 30.0 mg/kg/injection, schedule: Q01DX001 (ip), vehicle: other) is reported as 187 % of control. For the same compound, the T/C (dose: 38.0 mg/kg/injection, schedule: Q01DX001 (ip), vehicle: other) was 209 % of control, the T/C (dose: 46.0 mg/kg/injection, schedule: Q01DX001 (ip), vehicle: other) was 212 % of control and the T/C (dose: 62.0 mg/kg/injection, schedule: Q01DX001 (ip), vehicle: other) was 312 % of control.
In the case of `O=c1[nH]c(=O)n(C2CCCCO2)cc1F` (stereo not drawn), the T/C (dose: 2.5 mg/kg/injection, schedule: Q01DX009 (ip), vehicle: saline) is reported as 100 % of control, the T/C (dose: 5.0 mg/kg/injection, schedule: Q01DX009 (ip), vehicle: saline) is reported as 104 % of control and the T/C (dose: 10.0 mg/kg/injection, schedule: Q01DX009 (ip), vehicle: saline) is reported as 94 % of control. For the same compound, the T/C (dose: 20.0 mg/kg/injection, schedule: Q01DX009 (ip), vehicle: saline) was 96 % of control, the T/C (dose: 40.0 mg/kg/injection, schedule: Q01DX009 (ip), vehicle: saline) was 100 % of control and the T/C (dose: 80.0 mg/kg/injection, schedule: Q01DX009 (ip), vehicle: saline) was 96 % of control. The T/C (dose: 160.0 mg/kg/injection, schedule: Q01DX009 (ip), vehicle: saline) was 98 % of control.

From PubChem BioAssay AID248 (DTP/NCI, 2004)
